According to patent US5232912A, “Anticoagulant peptides” (Merrell Dow Pharmaceuticals Inc., priority 1992, dated 1993):

Target: T1, bovine thrombin (Bos taurus, UniProt P00735)
T1 construct: A bovine thrombin solution (50 ul; 0.2 pmol; Sigma); purchased Sigma
Assay: Fibrin clot inhibition assay
Format: biochemical
Set-up: unit not given here
Conditions: bovine thrombin 0.2 pmol, 10 minute incubation at 24° C., 1:10 diluted human plasma, turbidity (A405); two-fold delay of fibrin clot present at 15 minutes in the control well
Method: Human plasma was collected in EDTA (final concentration=0.1%) from a healthy volunteer who had fasted for 12 hours. The plasma was immediately sterilized by passing it through a 0.2 u filter membrane (Gelman) then aliquoted into 1 ml portions and stored at -20° C. In all assays, unsulfated Nα-acetylhirudin 45-65 was included as a control. A bovine thrombin solution (50 ul; 0.2 pmol; Sigma) was added to the wells of a 96 well microtiter plate (Falcon) containing 50 ul of a solution and a 10 minute incubation at 24° C., 100 ul of 1:10 diluted human plasma in 0.12M sodium chloride, 0.01M sodium phosphate, 0.01% sodium azide, 0.1% bovine serum albumin (pH 7.4) was added. The mixture was agitated for 20 seconds and the turbidity (A405) of the solution was measured at 5 minute intervals by an autoreader (Bio-Tek Model EL 309). Reported is the ability of a 5 uM concentration of peptide to delay two-fold the amount of fibrin clot present at 15 minutes in the control well.

Row | Fibrin Clot Inhibition | SMILES
1 | 0.63 | CC[C@H](C)[C@H](NC(=O)[C@@H]1CCCN1C(=O)[C@H](CCC(=O)O)NC(=O)[C@H](Cc1ccc(O)cc1)NC(=O)CCC(=O)O)C(=O)N1Cc2ccccc2C[C@H]1C(=O)N[C@@H](CCC(=O)O)C(=O)N[C@@H](CCC(=O)O)C(=O)N[C@@H](C)C(=O)N[C@@H](CC1CCCCC1)C(=O)N[C@H](CCC(=O)O)C(=O)O [Example 6, Suc-Tyr-Glu-Pro-Ile-Tiq-Glu-Glu-Ala-Cha-D-Glu-OH]
2 | 1.9 | CC[C@H](C)[C@H](NC(=O)[C@@H]1CCCCN1C(=O)[C@H](CCC(=O)O)NC(=O)[C@H](Cc1ccc(O)cc1)NC(=O)CCC(=O)O)C(=O)N1CCC[C@H]1C(=O)N[C@@H](CCC(=O)O)C(=O)N[C@@H](CCC(=O)O)C(=O)N[C@@H](C)C(=O)N[C@@H](CC1CCCCC1)C(=O)N[C@H](CCC(=O)O)C(=O)O [Example 2, Suc-Tyr-Glu-Pip-Ile-Pro-Glu-Glu-Ala-Cha-D-Glu-OH]
3 | 0.82 | CC[C@H](C)[C@H](NC(=O)[C@@H]1Cc2ccccc2CN1C(=O)[C@H](CCC(=O)O)NC(=O)[C@H](Cc1ccc(O)cc1)NC(=O)CCC(=O)O)C(=O)N1CCC[C@H]1C(=O)N[C@@H](CCC(=O)O)C(=O)N[C@@H](CCC(=O)O)C(=O)N[C@@H](C)C(=O)N[C@@H](CC1CCCCC1)C(=O)N[C@H](CCC(=O)O)C(=O)O [Example 5, Suc-Tyr-Glu-Tiq-Ile-Pro-Glu-Glu-Ala-Cha-D-Glu-OH]
4 | 0.88 | CC[C@H](C)[C@H](NC(=O)[C@@H]1CCCN1C(=O)[C@H](CCC(=O)O)NC(=O)[C@H](Cc1ccc(O)cc1)NC(=O)CCC(=O)O)C(=O)N1CCCC[C@H]1C(=O)N[C@@H](CCC(=O)O)C(=O)N[C@@H](CCC(=O)O)C(=O)N[C@@H](C)C(=O)N[C@@H](CC1CCCCC1)C(=O)N[C@H](CCC(=O)O)C(=O)O [Example 1, Suc-Tyr-Glu-Pro-Ile-Pip-Glu-Glu-Ala-Cha-D-Glu-OH]
